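96-well plates; 48 h exposure; 5 concentrations. Endpoints by linear interpolation between flanking doses. Not reached: highest tested concentration assigned. GI50 = concentration required for 50% inhibition of growth.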 The source made the active and inactive calls. Cut-off read from the data, not from the text of the source: active = GI50 up to about 1.1 µM and inactive = higher.
Assays:
Assay in all cases: inhibition of tumour cell growth, NCI panel, 48 h
HCT-116 = tested on: HCT-116
SNB-75 = tested on: SNB-75
SNB-19 = tested on: SNB-19
HCC 2998 = tested on: HCC 2998
A549 = tested on: A549
CCRF-CEM = tested on: CCRF-CEM
IGROV-1 = tested on: IGROV-1
SR = tested on: SR
OVCAR-8 = tested on: OVCAR-8
SK-MEL-5 = tested on: SK-MEL-5
TK-10 = tested on: TK-10
ACHN = tested on: ACHN
EKVX = tested on: EKVX
SF-295 = tested on: SF-295
NCI-H226 = tested on: NCI-H226
UACC-62 = tested on: UACC-62
HL-60 = tested on: HL-60
HOP-92 = tested on: HOP-92
RPMI-8226 = tested on: RPMI-8226

Row | Structure (SMILES) | GI50 (HCT-116) | GI50 (SNB-75) | GI50 (SNB-19) | GI50 (HCC 2998) | GI50 (A549) | GI50 (CCRF-CEM) | GI50 (IGROV-1) | GI50 (SR) | GI50 (OVCAR-8) | GI50 (SK-MEL-5) | GI50 (TK-10) | GI50 (ACHN) | GI50 (EKVX) | GI50 (SF-295) | GI50 (NCI-H226) | GI50 (UACC-62) | GI50 (HL-60) | GI50 (HOP-92) | GI50 (RPMI-8226)
1 | O=c1[nH]c2ccc(O)cc2o1 | > 100 µM (inactive) | 42.7 µM (inactive) | > 100 µM (inactive) | 2.56 µM (inactive) | > 100 µM (inactive) | > 100 µM (inactive) | > 100 µM (inactive) | > 100 µM (inactive) | > 100 µM (inactive) | > 100 µM (inactive) | > 100 µM (inactive) | > 100 µM (inactive) | > 100 µM (inactive) | > 100 µM (inactive) | > 100 µM (inactive) | > 100 µM (inactive) | > 100 µM (inactive) |  | 
2 | O=C(NC1C2CC3CC(C2)CC1C3)c1ccncn1 (stereo not drawn) | > 100 µM (inactive) | > 100 µM (inactive) | > 100 µM (inactive) | > 100 µM (inactive) | > 100 µM (inactive) | > 100 µM (inactive) | > 100 µM (inactive) |  | > 100 µM (inactive) | > 100 µM (inactive) |  | > 100 µM (inactive) | > 100 µM (inactive) | > 100 µM (inactive) | > 100 µM (inactive) | > 100 µM (inactive) | > 100 µM (inactive) | > 100 µM (inactive) | 
3 | CC(=O)O[C@H]1[C@H](O[C@H]2CC[C@]34C[C@]35CC[C@]3(C)[C@@H]([C@@]6(C)CC[C@@H](C(C)(C)O)O6)[C@@H](O)C[C@@]3(C)[C@@H]5C[C@H](O[C@@H]3O[C@H](CO)[C@@H](O)[C@H](O)[C@H]3O)[C@H]4C2(C)C)OC[C@@H](O)[C@@H]1O | > 100 µM (inactive) | > 100 µM (inactive) | > 100 µM (inactive) | > 100 µM (inactive) | > 100 µM (inactive) | 31.6 µM (inactive) | > 100 µM (inactive) |  | > 100 µM (inactive) | > 100 µM (inactive) | > 100 µM (inactive) | > 100 µM (inactive) | > 100 µM (inactive) | > 100 µM (inactive) | > 100 µM (inactive) | > 100 µM (inactive) | 35.6 µM (inactive) | > 100 µM (inactive) | 52.6 µM (inactive)
4 | CCN(CC)CC(=O)N1CCc2c([nH]c3ccccc23)C1c1cccnc1 (stereo not drawn) | > 100 µM (inactive) | 73.6 µM (inactive) | > 100 µM (inactive) | > 100 µM (inactive) | > 100 µM (inactive) | > 100 µM (inactive) | > 100 µM (inactive) |  | > 100 µM (inactive) | > 100 µM (inactive) | > 100 µM (inactive) | > 100 µM (inactive) | > 100 µM (inactive) | > 100 µM (inactive) |  | > 100 µM (inactive) | > 100 µM (inactive) | 31.4 µM (inactive) | 71.8 µM (inactive)
5 | CN(C)CCC(/C=C/c1ccccc1)=N\Nc1ccccc1 | 1.9 µM (inactive) | 3.48 µM (inactive) | 3.88 µM (inactive) |  | 1.73 µM (inactive) | 0.526 µM (active) | 2.82 µM (inactive) |  | 10.7 µM (inactive) | 3.48 µM (inactive) | 1.6 µM (inactive) | 0.37 µM (active) | 2.07 µM (inactive) | 0.451 µM (active) |  | 0.617 µM (active) | 0.564 µM (active) |  | 0.853 µM (active)
6 | N#Cc1c([N+](=O)[O-])cc(C(F)(F)F)cc1[N+](=O)[O-] | 7.76 µM (inactive) | 6.22 µM (inactive) | 18.3 µM (inactive) |  | 19.5 µM (inactive) | 1.09 µM (active) | 5.65 µM (inactive) | 2.16 µM (inactive) | 2.09 µM (inactive) | 15.3 µM (inactive) | 13.7 µM (inactive) | 7.5 µM (inactive) | 18 µM (inactive) | 4.74 µM (inactive) | 21.6 µM (inactive) | 5.04 µM (inactive) | 1.66 µM (inactive) | 1.81 µM (inactive) | 2.57 µM (inactive)
7 | Cn1c2cccc3nnc4cccc(c4c32)n1C | > 100 µM (inactive) |  | > 100 µM (inactive) | > 100 µM (inactive) | > 100 µM (inactive) | > 100 µM (inactive) | > 100 µM (inactive) |  | > 100 µM (inactive) | > 100 µM (inactive) |  | > 100 µM (inactive) | > 100 µM (inactive) | > 100 µM (inactive) | 45.8 µM (inactive) | > 100 µM (inactive) | > 100 µM (inactive) | > 100 µM (inactive) | > 100 µM (inactive)
8 | O=C1CCC2(c3ccccc3)Nc3ncccc3N12 (stereo not drawn) |  | 61.9 µM (inactive) |  | > 100 µM (inactive) | > 100 µM (inactive) | > 100 µM (inactive) | > 100 µM (inactive) |  | > 100 µM (inactive) | > 100 µM (inactive) | > 100 µM (inactive) | > 100 µM (inactive) | > 100 µM (inactive) | > 100 µM (inactive) | > 100 µM (inactive) | > 100 µM (inactive) | > 100 µM (inactive) | > 100 µM (inactive) | > 100 µM (inactive)

Source: ChEMBL document CHEMBL1201862, “PubChem BioAssay data set” (2004)
